Experiments:
[1] = molecular target: JAK2/JAK2 homdimeric complex (Homo sapiens (Human), UniProt O60674); assay: GM-CSF Induced pSTAT5 in Human PBMC; assay type: cell-based; details: GM-CSF 5 ng/mL for 20 minutes, pSTAT5 by MSD, read-out: PBMC_GMCSF_pSTAT5 IC50
[2] = molecular target: Tyk2/JAK2 (heterodimeric complex) (Homo sapiens (Human), UniProt P29597); assay: IL-12 Induced pSTAT4 in Human PBMC; assay type: cell-based; details: 1.7 ng/mL IL-12
Excerpt: The IL-12 Induced pSTAT4 assay evaluates the inhibition of IL-12 induced STAT4 phophorylation mediated by Tyk2/JAK2 (heterodimeric complex).

JAK2 kinase domain (JH1) = JAK2 kinase domain (JH1) (Homo sapiens (Human), UniProt O60674); assay: JAK2 Radioactive Kinase Assay; assay type: biochemical; details: compound at 10 μM, ATP 10 μM; for inhibition at 10 µM: read-out: JAK2 JH1% Inhibition @ 10 μM
Outline: (§1)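 Single-point screen: 10 μM test compound, radioactive kinase read-out, percent inhibition reported for each kinase domain.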

[3] = molecular target: human TYK2 (JH2domain-pseudokinase) (Homo sapiens (Human), UniProt P29597); assay: TYK2 JH2 Domain Binding Assay (KINOMEscan)
Outline: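 Kds, run in duplicate, came from Hill fits (slope fixed at −1) of an 11-point 3-fold dilution series starting at 30,000 nM. Bead-retained TYK2 JH2 (aa G556–D888)–NFkB DBD fusion, DNA-tagged and expressed in HEK293 cells, was read by qPCR after 1 h room-temperature binding in 0.9% DMSO.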

Tyk2 kinase domain (DH1) = Tyk2 kinase domain (DH1) (Homo sapiens (Human), UniProt P29597); assay: Tyk2 Radioactive Kinase Assay; assay type: biochemical; details: compound at 10 μM, ATP 10 μM; for inhibition at 10 µM: read-out: Tyk2 JH1% Inhibition @ 10 μM
Outline: as §1

human TYK2 (JH2domain-pseudokinase), sequence (P29597 556-888): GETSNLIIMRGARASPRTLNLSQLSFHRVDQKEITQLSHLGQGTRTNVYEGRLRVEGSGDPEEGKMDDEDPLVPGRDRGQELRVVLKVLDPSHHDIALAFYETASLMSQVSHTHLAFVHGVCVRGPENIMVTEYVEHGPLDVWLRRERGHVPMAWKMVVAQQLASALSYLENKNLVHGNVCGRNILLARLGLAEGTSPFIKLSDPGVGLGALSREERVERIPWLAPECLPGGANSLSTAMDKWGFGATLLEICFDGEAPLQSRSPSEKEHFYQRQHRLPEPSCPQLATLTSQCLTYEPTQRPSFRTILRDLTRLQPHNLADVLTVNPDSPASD
Tyk2/JAK2 (heterodimeric complex), sequence (P29597 whole entry, other chains not shown): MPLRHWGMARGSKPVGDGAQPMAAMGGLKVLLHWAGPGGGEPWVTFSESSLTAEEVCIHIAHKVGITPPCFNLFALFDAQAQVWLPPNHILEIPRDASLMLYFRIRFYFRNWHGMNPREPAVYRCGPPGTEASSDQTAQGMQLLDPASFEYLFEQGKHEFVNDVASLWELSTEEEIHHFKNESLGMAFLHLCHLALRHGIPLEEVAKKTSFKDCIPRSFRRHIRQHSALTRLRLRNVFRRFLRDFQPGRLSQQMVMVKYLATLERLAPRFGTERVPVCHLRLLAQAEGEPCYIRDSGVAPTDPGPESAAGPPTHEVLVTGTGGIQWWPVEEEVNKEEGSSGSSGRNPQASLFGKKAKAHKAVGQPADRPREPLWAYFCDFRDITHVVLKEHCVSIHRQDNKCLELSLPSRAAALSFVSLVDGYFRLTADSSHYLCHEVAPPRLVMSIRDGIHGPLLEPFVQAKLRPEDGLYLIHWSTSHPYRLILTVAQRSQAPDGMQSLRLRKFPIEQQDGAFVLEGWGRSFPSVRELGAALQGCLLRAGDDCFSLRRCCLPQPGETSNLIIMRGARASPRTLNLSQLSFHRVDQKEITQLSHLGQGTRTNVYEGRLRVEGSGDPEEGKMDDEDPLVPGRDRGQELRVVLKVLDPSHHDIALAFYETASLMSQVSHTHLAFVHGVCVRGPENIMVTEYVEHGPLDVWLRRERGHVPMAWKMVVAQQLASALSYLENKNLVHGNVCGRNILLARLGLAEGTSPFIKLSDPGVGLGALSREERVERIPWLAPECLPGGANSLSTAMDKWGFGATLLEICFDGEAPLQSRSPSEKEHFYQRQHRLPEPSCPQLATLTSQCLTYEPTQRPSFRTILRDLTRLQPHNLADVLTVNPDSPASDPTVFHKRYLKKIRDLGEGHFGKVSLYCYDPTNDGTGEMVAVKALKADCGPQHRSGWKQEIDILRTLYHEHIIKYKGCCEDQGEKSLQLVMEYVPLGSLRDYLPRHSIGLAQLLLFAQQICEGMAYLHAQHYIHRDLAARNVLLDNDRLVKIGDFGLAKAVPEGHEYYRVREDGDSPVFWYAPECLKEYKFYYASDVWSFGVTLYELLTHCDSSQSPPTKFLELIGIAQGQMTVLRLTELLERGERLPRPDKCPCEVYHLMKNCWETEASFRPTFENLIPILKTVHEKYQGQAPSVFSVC
Tyk2 kinase domain (DH1), sequence (P29597 897-1176): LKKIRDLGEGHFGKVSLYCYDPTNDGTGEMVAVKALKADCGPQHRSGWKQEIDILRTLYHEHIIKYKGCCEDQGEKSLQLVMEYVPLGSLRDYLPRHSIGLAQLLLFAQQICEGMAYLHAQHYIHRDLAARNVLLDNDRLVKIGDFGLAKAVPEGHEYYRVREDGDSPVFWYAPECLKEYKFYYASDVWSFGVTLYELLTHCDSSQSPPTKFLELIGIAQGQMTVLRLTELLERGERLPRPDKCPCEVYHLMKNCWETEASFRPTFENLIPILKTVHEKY
JAK2 kinase domain (JH1), sequence (O60674 849-1124): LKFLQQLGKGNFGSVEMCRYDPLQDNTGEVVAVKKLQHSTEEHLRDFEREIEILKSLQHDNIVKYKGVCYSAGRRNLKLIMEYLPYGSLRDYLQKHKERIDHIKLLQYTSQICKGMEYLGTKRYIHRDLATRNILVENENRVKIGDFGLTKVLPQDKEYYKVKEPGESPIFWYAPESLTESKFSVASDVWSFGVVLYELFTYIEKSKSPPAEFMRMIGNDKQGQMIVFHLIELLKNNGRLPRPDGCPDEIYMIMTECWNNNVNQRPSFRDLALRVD
JAK2/JAK2 homdimeric complex, sequence (O60674 whole entry): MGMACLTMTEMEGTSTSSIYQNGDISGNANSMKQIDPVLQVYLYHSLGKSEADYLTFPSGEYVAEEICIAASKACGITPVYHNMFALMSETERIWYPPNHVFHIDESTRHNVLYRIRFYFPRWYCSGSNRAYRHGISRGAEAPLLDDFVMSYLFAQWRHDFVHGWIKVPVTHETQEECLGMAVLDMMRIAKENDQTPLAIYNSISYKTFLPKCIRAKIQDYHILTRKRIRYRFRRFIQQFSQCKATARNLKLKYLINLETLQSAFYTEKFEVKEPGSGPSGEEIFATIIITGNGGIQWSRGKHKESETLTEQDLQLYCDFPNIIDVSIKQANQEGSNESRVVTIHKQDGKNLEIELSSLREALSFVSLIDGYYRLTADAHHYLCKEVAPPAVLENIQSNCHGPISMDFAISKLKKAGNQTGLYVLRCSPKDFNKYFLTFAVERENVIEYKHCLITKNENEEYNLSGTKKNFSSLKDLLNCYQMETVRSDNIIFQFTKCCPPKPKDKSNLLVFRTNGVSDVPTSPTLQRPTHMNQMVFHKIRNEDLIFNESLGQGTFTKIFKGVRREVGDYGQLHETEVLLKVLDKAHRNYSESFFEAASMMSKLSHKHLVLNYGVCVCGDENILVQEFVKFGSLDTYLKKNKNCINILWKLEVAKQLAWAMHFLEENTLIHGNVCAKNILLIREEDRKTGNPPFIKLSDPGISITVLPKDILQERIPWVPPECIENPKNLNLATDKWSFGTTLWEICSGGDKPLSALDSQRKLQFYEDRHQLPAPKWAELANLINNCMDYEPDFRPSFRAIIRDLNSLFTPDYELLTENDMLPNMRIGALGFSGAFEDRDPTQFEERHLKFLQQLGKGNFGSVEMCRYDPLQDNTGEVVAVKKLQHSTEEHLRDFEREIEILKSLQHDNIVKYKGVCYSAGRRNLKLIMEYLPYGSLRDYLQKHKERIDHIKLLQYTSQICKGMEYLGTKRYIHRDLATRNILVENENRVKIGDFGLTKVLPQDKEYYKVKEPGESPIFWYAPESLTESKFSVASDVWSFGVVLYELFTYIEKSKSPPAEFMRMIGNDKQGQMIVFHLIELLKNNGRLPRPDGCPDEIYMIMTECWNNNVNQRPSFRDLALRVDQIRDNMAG
JAK2/JAK2 homdimeric complex, sequence (P32927 17-897 partner): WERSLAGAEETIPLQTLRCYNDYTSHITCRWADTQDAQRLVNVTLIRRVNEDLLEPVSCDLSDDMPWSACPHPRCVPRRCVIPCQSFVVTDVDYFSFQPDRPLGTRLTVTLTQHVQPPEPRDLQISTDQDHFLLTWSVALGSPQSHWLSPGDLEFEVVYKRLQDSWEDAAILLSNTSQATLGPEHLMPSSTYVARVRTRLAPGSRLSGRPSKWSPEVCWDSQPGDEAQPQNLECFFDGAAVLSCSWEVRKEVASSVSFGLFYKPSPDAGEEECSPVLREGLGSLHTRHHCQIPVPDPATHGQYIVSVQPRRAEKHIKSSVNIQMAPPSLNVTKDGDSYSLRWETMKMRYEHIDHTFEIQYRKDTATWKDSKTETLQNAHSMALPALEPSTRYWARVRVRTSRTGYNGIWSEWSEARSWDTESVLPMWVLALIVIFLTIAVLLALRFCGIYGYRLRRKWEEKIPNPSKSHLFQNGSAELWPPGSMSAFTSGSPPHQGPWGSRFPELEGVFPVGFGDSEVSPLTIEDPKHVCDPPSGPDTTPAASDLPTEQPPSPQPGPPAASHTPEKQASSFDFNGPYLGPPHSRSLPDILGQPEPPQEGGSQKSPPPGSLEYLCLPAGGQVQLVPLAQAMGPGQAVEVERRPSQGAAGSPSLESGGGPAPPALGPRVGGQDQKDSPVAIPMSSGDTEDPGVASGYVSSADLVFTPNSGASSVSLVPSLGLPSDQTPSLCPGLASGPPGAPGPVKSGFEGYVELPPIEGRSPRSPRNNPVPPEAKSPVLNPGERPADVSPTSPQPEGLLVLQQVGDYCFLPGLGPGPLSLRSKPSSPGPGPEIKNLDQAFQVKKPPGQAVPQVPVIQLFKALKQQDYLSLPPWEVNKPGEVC

SMILES	IC50 [1] [nM]	IC50 [2] [nM]	inhibition at 10 µM (JAK2 kinase domain (JH1)) [%]	Kd [3] [nM]	inhibition at 10 µM (Tyk2 kinase domain (DH1)) [%]	JAK2 JH1% Inhibition @ 10 μM (JAK2 kinase domain (JH1))	Tyk2 JH1% Inhibition @ 10 μM (Tyk2 kinase domain (DH1))
CNc1cc(Nc2cccnc2OC)nc2c(C(=O)NCC3(CO)CC3)cnn12 [I-425]	> 50000	< 100	< 50	< 0.2	< 50	–	–
CNc1cc(Nc2cccnc2OC2CC2)nc2c(C(=O)NCC3(CO)CC3)cnn12 [I-426]	> 50000	< 100	< 50	< 0.2	< 50	–	–
CNc1cc(Nc2cccnc2OC2CC2)nc2c(C(=O)NCC(C)CO)cnn12 (stereo not drawn) [I-435]	> 50000	100 to 500	< 50	< 0.2	< 50	–	–
CNc1cc(Nc2cccnc2OC)nc2c(C(=O)NC[C@H](C)CO)cnn12 [I-483]	> 50000	< 100	< 50	< 0.2	< 50	–	–
[2H]C([2H])([2H])Oc1ncccc1Nc1cc(NC)n2ncc(C(=O)N[C@@H]3CCC[C@@H](O)C3)c2n1 [I-499]	> 50000	< 100	< 50	< 0.2	< 50	–	–
[2H]C([2H])([2H])Oc1ncccc1Nc1cc(NC)n2ncc(C(=O)N[C@H]3CC[C@H](O)C3)c2n1 [I-500]	> 50000	< 100	–	< 0.2	–	A (percent inhibition at 10 μM lower than 50)	A (percent inhibition at 10 μM lower than 50)
CNc1cc(Nc2cccn(-c3ncccc3F)c2=O)nc2c(C(=O)NCC(C)(C)CO)cnn12 [I-510]	> 50000	< 100	< 50	< 0.2	< 50	–	–
CNc1cc(Nc2cc(F)cn([C@H]3CCCOC3)c2=O)nc2c(C(=O)N[C@H]3C[C@H]3F)cnn12 [I-559]	> 50000	< 100	< 50	< 0.2	< 50	–	–
CNc1cc(Nc2cccc([C@@H]3CCCOC3)n2)nc2c(C(=O)N[C@H]3C[C@H]3F)cnn12 [I-562]	> 50000	< 100	50 to 70	< 0.2	< 50	–	–
CNc1cc(Nc2cccc([C@H]3CCCOC3)n2)nc2c(C(=O)N[C@H]3C[C@H]3F)cnn12 [I-563]	> 50000	< 100	< 50	< 0.2	< 50	–	–
CNc1cc(-c2cn(C(C)C)c3ncccc23)nc2c(C(=O)N[C@@H]3CC[C@@H]3O)cnn12 [I-578]	> 50000	< 100	< 50	< 0.2	< 50	–	–
CNc1cc(-c2cn(CCN3CCCCC3)c3ncccc23)nc2c(C(=O)N[C@H]3C[C@H]3F)cnn12 [I-585]	> 12500	< 100	< 50	< 0.2	< 50	–	–
CNc1cc(-c2cn(C(C)C)c3ncccc23)nc2c(C(=O)N[C@H]3CC[C@@H]3O)cnn12 [I-586, N-((1R,2R)-2-hydroycyclobutyl)-5-(1-isopropyl-1H-pyrrolo[2,3-b]pyridin-3-yl)-7-(methylamino)pyrazolo[1,5-a]pyrimidine-3-carboxamide]	> 50000	< 100	< 50	< 0.2	< 50	–	–
CNc1cc(Nc2cccc(N3CCOCC3)n2)nc2c(C(=O)N[C@H]3C[C@H]3F)cnn12 [I-590]	> 12500	< 100	50 to 70	< 0.2	< 50	–	–
CNc1cc(Nc2cccc3ocnc23)nc2c(C(=O)NC3CC3)cnn12 [I-591]	> 12500	< 100	< 50	< 0.2	< 50	–	–
CNc1cc(Nc2cccc3ocnc23)nc2c(C(=O)N[C@H]3C[C@H]3F)cnn12 [I-592]	> 12500	< 100	< 50	< 0.2	< 50	–	–
CNc1cc(Nc2cccn(-c3cn(C)nc3F)c2=O)nc2c(C(=O)NC3CC3)cnn12 [I-606]	> 12500	100 to 500	< 50	< 0.2	< 50	–	–
CNc1cc(Nc2cccn(-c3cn(C)nc3F)c2=O)nc2c(C(=O)N[C@H]3C[C@H]3F)cnn12 [I-607]	> 50000	< 100	< 50	< 0.2	< 50	–	–
CNc1cc(-c2cn(C(C)C)c3ncccc23)nc2c(C(=O)N[C@H]3C[C@H](O)C3)cnn12 [I-630, N-((1r, 3r)-3-hydroxycyclobutyl)-5-(1-isopropyl-1H-pyrrolo[2,3-b]pyridin-3-yl)-7-(methylamino)pyrazolo[1,5-a]pyrimidine-3-carboxamide]	> 2500	< 100	< 50	< 0.2	< 50	–	–

Second part, led by results:

IC50 [1] [nM]	IC50 [2] [nM]	inhibition at 10 µM (JAK2 kinase domain (JH1)) [%]	Kd [3] [nM]	inhibition at 10 µM (Tyk2 kinase domain (DH1)) [%]	SMILES	JAK2 JH1% Inhibition @ 10 μM (JAK2 kinase domain (JH1))	Tyk2 JH1% Inhibition @ 10 μM (Tyk2 kinase domain (DH1))
> 50000	< 100	< 50	< 0.2	< 50	CNc1cc(Nc2cccnc2OC)nc2c(C(=O)N[C@@H]3CCC[C@H]3O)cnn12 [I-423, N-((1R,2R)-2-hydroxycyclopentyl)-5-((2-methoxypyridin-3-yl)amino)-7-(methylamino)pyrazolo[1,5-a]pyrimidine-3-carboxamide]	–	–
> 50000	< 100	< 50	< 0.2	< 50	CNc1cc(Nc2cccn(C[C@@H]3CCCCO3)c2=O)nc2c(C(=O)N[C@@H]3C[C@@H]3F)cnn12 [I-428]	–	–
> 50000	< 100	< 50	< 0.2	< 50	CNc1cc(Nc2cccnc2OC)nc2c(C(=O)N[C@H]3CC[C@H]3O)cnn12 [I-429]	–	–
> 50000	< 100	< 50	< 0.2	< 50	CNc1cc(Nc2cccnc2OC)nc2c(C(=O)N[C@H]3C[C@@H]3O)cnn12 [I-438, N-((1S,2S)-2-hydroxycyclopropyl)-5-((2-methoxypyridin-3-yl)amino)-7-(methylamino)pyrazolo[1,5-a]pyrimidine-3-carboxamide]	–	–
> 12500	< 100	< 50	< 0.2	< 50	CNc1cc(Nc2cccn([C@@H]3CCCOC3)c2=O)nc2c(C(=O)N[C@@H]3C[C@@H]3F)cnn12 [I-474]	–	–
> 50000	< 100	< 50	< 0.2	< 50	CNc1cc(Nc2cccn([C@H]3CC[C@H](OC)CC3)c2=O)nc2c(C(=O)N[C@H]3CC[C@H]3O)cnn12 [I-539]	–	–
> 12500	< 100	< 50	< 0.2	< 50	CNc1cc(Nc2cccn([C@H]3CC[C@H](OC)CC3)c2=O)nc2c(C(=O)N[C@H]3CC[C@@H]3O)cnn12 [I-540]	–	–
> 2500	< 100	< 50	< 0.2	< 50	CNc1cc(Nc2cccn([C@H]3CC[C@H](OC)CC3)c2=O)nc2c(C(=O)NCC(C)(C)CO)cnn12 [I-544]	–	–
> 2500	100 to 500	< 50	< 0.2	< 50	CNc1cc(Nc2cccn([C@H]3CC[C@H](OC)CC3)c2=O)nc2c(C(=O)NCC3(CO)CC3)cnn12 [I-545]	–	–
> 50000	100 to 500	< 50	< 0.2	< 50	CNc1cc(Nc2cccnc2OC2CC2)nc2c(C(=O)N[C@H]3COC[C@H]3O)cnn12 [I-547]	–	–
> 2500	< 100	< 50	< 0.2	< 50	CNc1cc(Nc2cccn(C3CC4(COC4)C3)c2=O)nc2c(C(=O)N[C@@H]3C[C@@H]3F)cnn12 [I-551, N-((1R,2S)-2-fluorocyclopropyl)-7-(methylamino)-5-((2-oxo-1-(2-oxaspiro[3.3]heptan-6-yl)-1,2-dihydropyridin-3-yl)amino)pyrazolo[1,5-a]pyrimidine-3-carboxamide]	–	–
> 2500	< 100	< 50	< 0.2	< 50	CNc1cc(Nc2cccn([C@H]3CC[C@H](OC)CC3)c2=O)nc2c(C(=O)N[C@@H]3CC[C@@H]3O)cnn12 [I-560]	–	–
> 50000	< 100	< 50	< 0.2	< 50	CNc1cc(Nc2cccn(C3CCN(CCF)CC3)c2=O)nc2c(C(=O)N[C@H]3C[C@H]3F)cnn12 [I-570]	–	–
> 2500	< 100	50 to 70	< 0.2	50 to 70	CNc1cc(Nc2cccc([C@@H]3CCCOC3)n2)nc2c(C(=O)N[C@H]3CC[C@@H]3O)cnn12 [I-603]	–	–

Reference: patent publication US10508120B2, “TYK2 inhibitors and uses thereof” (Nimbus Lakshmi, Inc., priority 2017, dated 2019)
